≈ marks a conversion by molar mass, not a printed value. Non-standard residues stand in square brackets, D forms with d. Residues, ends and D or L forms follow the SMILES beside them. ξ: configuration not given here. Orn = NCCC[C@H](N)C(=O)O; ξP = O=C(O)C1CCCN1
Assays:
Assay type in all cases: functional
Staphylococcus aureus [1] = assay: Antibacterial activity against gentamicin-and methicillin-resistant Staphylococcus aureus ATCC 33592 assessed as reduction in bacterial growth incubated for 14 to 16 hrs by microbroth dilution method; settings: time 14-16 hrs
Escherichia coli = assay: Antibacterial activity against Escherichia coli MTCC 1687 assessed as reduction in bacterial growth incubated for 14 to 16 hrs by microbroth dilution method; settings: time 14-16 hrs
Staphylococcus aureus [2] = assay: Antibacterial activity against Staphylococcus aureus MTCC-96 assessed as reduction in bacterial growth incubated for 14 to 16 hrs by microbroth dilution method; settings: time 14-16 hrs
Staphylococcus aureus [3] = assay: Potency index, ratio of compound MIC to compound MIC in presence of 1 uM 1-(2-(1H-benzo[d]imidazol-1-yl)quinolin-8-yl)-3-(3,5-bis(trifluoromethyl)phenyl)thiourea and 200 uM ZnCl2 for antibacterial activity against gentamicin-and methicillin-resistant Staphylococcus aureus ATCC 33592
Staphylococcus aureus [4] = assay: (§1) Antibacterial activity against gentamicin-and methicillin-resistant Staphylococcus aureus ATCC 33592 assessed as reduction in bacterial growth incubated for 14 to 16 hrs in presence of 200 uM ZnCl2 by microbroth dilution method; settings: time 14-16 hrs
Staphylococcus aureus [5] = assay: as §1, with “1” for “200”, “1-(2-(1H-benzo[d]imidazol-1-yl)quinolin-8-yl)-3-(3,5-bis(trifluoromethyl)phenyl)thiourea” for “ZnCl2”; settings: time 14-16 hrs
Staphylococcus aureus [6] = assay: as §1, with “of 1 uM 1-(2-(1H-benzo[d]imidazol-1-yl)quinolin-8-yl)-3-(3,5-bis(trifluoromethyl)phenyl)thiourea and” for “of”; settings: time 14-16 hrs
Staphylococcus aureus [7] = assay: as §1, with “1 uM 1-(2-(1H-benzo[d]imidazol-1-yl)quinolin-8-yl)-3-(3,5-bis(trifluoromethyl)phenyl)thiourea and 100” for “200”; settings: time 14-16 hrs

Compound | MIC (Staphylococcus aureus [1]) [µM] | MIC (Escherichia coli) [µM] | MIC (Staphylococcus aureus [2]) [µM] | Ratio (Staphylococcus aureus [3]) | MIC (Staphylococcus aureus [4]) [µM] | MIC (Staphylococcus aureus [5]) [µM] | MIC (Staphylococcus aureus [6]) [µM] | MIC (Staphylococcus aureus [7]) [µM]
COc1ccc(NC(=S)Nc2cccc3cccnc23)cc1 | > 50 | > 50 | > 25 |  |  |  |  | 
CC(C)C[C@@H]1NC(=O)[C@H](CCCN)NC(=O)[C@H](C(C)C)NC(=O)[C@@H]2CCCN2C(=O)[C@@H](Cc2ccccc2)NC(=O)[C@H](CC(C)C)NC(=O)[C@H](CCCN)NC(=O)[C@H](C(C)C)NC(=O)C2CCCN2C(=O)[C@@H](Cc2ccccc2)NC1=O (stereo partly drawn) (cyclo(L[dF]PV[Orn]L[dF][ξP]V[Orn])) | 6.5 (≈ 7.42 µg/mL) | 4.51 (≈ 5.15 µg/mL) | 3.12 (≈ 3.56 µg/mL) |  |  |  |  | 
S=C(Nc1ccccc1)Nc1cccc2cccnc12 | > 50 | > 50 | > 25 |  |  |  |  | 
FC(F)(F)c1cc(NC(=S)Nc2cccc3ccc(-n4ccc5ccccc54)nc23)cc(C(F)(F)F)c1 | 6.25 (≈ 3.32 µg/mL) | > 50 | 6.25 (≈ 3.32 µg/mL) |  |  |  |  | 
O=[N+]([O-])c1ccc(NC(=S)Nc2cccc3cccnc23)cc1 | > 50 | > 50 | > 25 |  |  |  |  | 
[O-][n+]1ccccc1S [PYRITHIONE] |  |  | 9.8 (≈ 1.25 µg/mL) |  |  |  |  | 
FC(F)(F)c1cc(NC(=S)Nc2cccc3ccc(Nc4nc5ccccc5[nH]4)nc23)cc(C(F)(F)F)c1 | > 50 | > 50 | > 50 |  |  |  |  | 
FC(F)(F)c1cc(NC(=S)Nc2cccc3ccc(-n4ccnc4)nc23)cc(C(F)(F)F)c1 | 12.5 (≈ 6.02 µg/mL) | > 50 | 12.5 (≈ 6.02 µg/mL) |  |  |  |  | 
CC(C)(O/N=C(\C(=O)N[C@@H]1C(=O)N2C(C(=O)[O-])=C(C[n+]3ccccc3)CS[C@H]12)c1csc(N)n1)C(=O)O [CEFTAZIDIME] | 229 (≈ 125 µg/mL) |  |  | 1524 | 229 | 229 | 0.15 | 5.7

— ChEMBL document CHEMBL5360614, “Quinoline Thiourea-Based Zinc Ionophores with Antibacterial Activity” (J Med Chem, 2023)
